Test results: ChEMBL document CHEMBL5390243, “Catecholamine Derivatives: Natural Occurrence, Structural Diversity, and Biological Activity” (J Nat Prod, 2023)
One block for each compound: values may come before it.

Columns and labels:
[1] = target: Glycogen synthase kinase-3 beta (Homo sapiens, UniProt P49841); experiment: Inhibition of N-terminal His6-tagged human recombinant GSK3beta expressed in baculovirus-infected Sf21 cells incubated for 60 mins in presence of ATP by ADP-glo analysis
[2] = target: Cyclin-dependent kinase 5/CDK5 activator 1 (Homo sapiens, UniProt Q00535); experiment: Inhibition of N-terminal full length human recombinant CDK5/p25 expressed in baculovirus-infected Sf21 cells incubated for 60 mins in presence of ATP by kinase-glo luminescent assay
Chain of Cyclin-dependent kinase 5/CDK5 activator 1 (Q00535 whole entry, the tested form may be a part, canonical isoform): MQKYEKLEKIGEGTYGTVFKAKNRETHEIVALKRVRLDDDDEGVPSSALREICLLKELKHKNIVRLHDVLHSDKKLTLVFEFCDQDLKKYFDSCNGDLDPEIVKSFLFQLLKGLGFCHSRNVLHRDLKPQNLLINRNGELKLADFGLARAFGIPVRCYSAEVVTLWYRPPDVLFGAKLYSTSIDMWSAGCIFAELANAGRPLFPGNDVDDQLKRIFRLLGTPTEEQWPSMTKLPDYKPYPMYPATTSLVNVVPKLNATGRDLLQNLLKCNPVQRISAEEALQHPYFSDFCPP
Chain of Cyclin-dependent kinase 5/CDK5 activator 1 (Q15078 whole entry, further chain, the tested form may be a part, canonical isoform): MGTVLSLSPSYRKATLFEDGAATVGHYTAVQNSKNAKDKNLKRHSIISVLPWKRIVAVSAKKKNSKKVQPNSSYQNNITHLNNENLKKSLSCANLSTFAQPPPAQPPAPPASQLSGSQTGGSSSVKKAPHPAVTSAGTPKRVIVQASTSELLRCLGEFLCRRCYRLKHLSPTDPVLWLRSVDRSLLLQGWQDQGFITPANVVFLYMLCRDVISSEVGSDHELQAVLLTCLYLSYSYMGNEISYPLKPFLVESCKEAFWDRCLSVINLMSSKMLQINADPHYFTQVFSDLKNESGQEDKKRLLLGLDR

[3] = target: Casein kinase I isoform delta (Homo sapiens, UniProt P48730); experiment: Inhibition of N-terminal GST-tagged human recombinant CK1delta (1 to 294 residues) expressed in Escherichia coli incubated for 60 mins in presence of ATP by Kinase-glo luminescent assay
Chain of Casein kinase I isoform delta (P48730 whole entry, the tested form may be a part, canonical isoform): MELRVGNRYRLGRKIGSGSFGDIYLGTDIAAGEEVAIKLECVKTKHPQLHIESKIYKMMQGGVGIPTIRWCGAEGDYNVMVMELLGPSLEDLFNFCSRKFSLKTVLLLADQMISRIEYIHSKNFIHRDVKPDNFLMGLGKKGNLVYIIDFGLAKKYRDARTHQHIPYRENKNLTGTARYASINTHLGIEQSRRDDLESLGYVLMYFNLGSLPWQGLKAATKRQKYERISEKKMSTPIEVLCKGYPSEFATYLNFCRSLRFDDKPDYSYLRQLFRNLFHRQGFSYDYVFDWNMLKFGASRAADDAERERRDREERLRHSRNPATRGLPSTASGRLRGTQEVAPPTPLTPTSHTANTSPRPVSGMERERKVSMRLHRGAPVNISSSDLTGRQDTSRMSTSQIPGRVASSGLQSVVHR

Bacillus subtilis [4] = experiment: Antibacterial activity against Bacillus subtilis ATCC 6051 assessed as reduction in bacterial growth incubated for 18 to 24 hrs by broth microdilution method; format: functional, organism-based
Bacillus subtilis [5] = experiment: Antibacterial activity against Bacillus subtilis ATCC 6633 assessed as reduction in bacterial growth incubated for 18 to 24 hrs by broth microdilution method; format: functional, organism-based
[6] = Cytotoxicity against rat NRK-52E cells assessed as inhibition of cell growth incubated for 24 hrs by CCK-8 assay; format: toxicity, cell-based
[7] = target: Delta-type opioid receptor (Homo sapiens, UniProt P41143); experiment: Binding affinity to DOR (unknown origin) assessed as inhibition constant
Chain of Delta-type opioid receptor (P41143 whole entry): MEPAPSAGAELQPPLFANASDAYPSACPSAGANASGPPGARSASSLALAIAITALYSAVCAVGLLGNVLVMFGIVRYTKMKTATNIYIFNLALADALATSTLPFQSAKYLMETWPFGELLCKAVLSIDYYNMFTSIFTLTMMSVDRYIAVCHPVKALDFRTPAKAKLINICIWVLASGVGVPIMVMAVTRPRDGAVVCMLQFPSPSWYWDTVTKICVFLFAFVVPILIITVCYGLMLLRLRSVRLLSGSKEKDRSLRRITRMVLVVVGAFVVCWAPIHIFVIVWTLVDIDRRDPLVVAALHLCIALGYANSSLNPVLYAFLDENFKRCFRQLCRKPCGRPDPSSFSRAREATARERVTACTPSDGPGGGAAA

Chain of Glycogen synthase kinase-3 beta (P49841 whole entry): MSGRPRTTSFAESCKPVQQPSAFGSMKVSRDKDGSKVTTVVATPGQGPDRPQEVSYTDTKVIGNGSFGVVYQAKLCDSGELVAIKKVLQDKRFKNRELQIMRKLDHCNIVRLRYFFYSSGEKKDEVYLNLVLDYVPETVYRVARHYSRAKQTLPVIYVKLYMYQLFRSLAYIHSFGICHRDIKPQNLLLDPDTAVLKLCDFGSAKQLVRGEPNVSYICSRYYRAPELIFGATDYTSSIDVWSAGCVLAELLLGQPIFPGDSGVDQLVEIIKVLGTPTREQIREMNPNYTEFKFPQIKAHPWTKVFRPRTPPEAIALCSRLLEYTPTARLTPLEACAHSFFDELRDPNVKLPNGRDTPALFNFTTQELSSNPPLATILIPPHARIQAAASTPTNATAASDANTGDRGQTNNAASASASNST

IC50 [1]: 1.6 µM
IC50 [2]: 10.9 µM
IC50 [3]: 2.3 µM
SMILES: O=C(O)c1[nH]c2c(=O)oc3cc(O)c(O)cc3c2c1-c1ccc(O)c(O)c1
IC50 (Bacillus subtilis [4]): 3 µM
IC50 (Bacillus subtilis [5]): 3.8 µM

SMILES: CC(=O)NCCc1ccc2c(c1)O[C@]1(NC(C)=O)[C@H](O2)c2cc(O)c(O)cc2[C@@H](c2ccc(O)c(O)c2)[C@@H]1NC(C)=O
IC50 at 24 h [6]: 30 µM

Ki [7]: 0.485 µM
SMILES: N=C(N)NCCCC1=NCCc2cc(O)c(O)cc21
